Starred links: 1 amine or outer side, 2 acyl side, 3 side chain; linkers in the order of their positions; H or OH if unused. Non-standard residues stand in square brackets, D forms with d. *: point of attachment. X2 = CC(C)CCC[C@@H](C)[C@H]1CC[C@H]2[C@@H]3CC=C4C[C@@H](OC(=O)CCOCCOCCOCCOCCNC(=O)C*)CC[C@]4(C)[C@H]3CC[C@]12C; X1 = O=C([C@H]1CNC[C@@H]1N[*:1])[*:2]; β3hE = N[C@@H](CCC(=O)O)CC(=O)O; β3hQ = NC(=O)CC[C@H](N)CC(=O)O; β3hD = NC(CC(=O)O)CC(=O)O; βAla = NCCC(=O)O

The values below come from patent US20260232759A1, “PEPTIDES THAT INHIBIT INFECTION BY SARS-COV-2, THE VIRUS THAT CAUSES COVID-19 DISEASE” (Wisconsin Alumni Research Foundation, priority 2021, published 2026).

The test concerns the target T1, SARS-CoV-2 S (Severe acute respiratory syndrome coronavirus 2, UniProt P0DTC2).
T1 construct: expressed in transfected cells
In words: β-Gal complementation-based cell-cell fusion assay (S-protein-mediated fusion). The settings on record: for IC90: read-out: 90% inhibitory concentration (IC90), inhibition of S-mediated fusion.

Setting [1] is: IC50, inhibition of S-mediated fusion.
Where [2] appears, read: 50% inhibitory concentration (IC50), inhibition of S-mediated fusion.

Take “Ac-[β3hD]IS[β3hQ]INASVVNI[β3hE]YEI[X1]KLEEVA[X1]KLEESLI[β3hD]L[β3hQ]EL[βAla]SGS[βAla]C(X2)-NH2 [α/β-SARS2 HRC QE-15]”: the IC50 under setting [1] is approximately 50 nM.
Turning to “Ac-[β3hD]IS[β3hQ]INASVVNIEYEI[X1]KLEEVA[X1]KLEESLI[β3hD]L[β3hQ]ELGSGSGC(X2)-NH2 [α/β-SARS2 HRC QE-7]”, the IC90 was approximately 100 nM. Under setting [2], this substance had an IC50 of approximately 20 nM. Moreover, the IC50 under setting [1] is approximately 10 nM.
Substance “Ac-[β3hD]IS[β3hQ]INASVVNIEYEI[X1]KLEEVA[X1]KLEESLI[β3hD]L[β3hQ]EL[βAla]SGS[βAla]C(X2)-NH2 [α/β-SARS2 HRC QE-17]” showed an IC50 under setting [1] of approximately 10 nM.
Take “Ac-[β3hD]IS[β3hQ]INASVVNIEYEIKKLEEVA[X1]KLEESLI[β3hD]L[β3hQ]ELGSGSGC(X2)-NH2 [α/β-SARS2 HRC QE-6]”: the IC90 was approximately 100 nM. Also, the IC50 under setting [2] was approximately 20 nM.
“Ac-[β3hD]IS[β3hQ]INASVVNIEYEI[X1]KLEEVA[X1]KLE[β3hE]SLI[β3hD]L[β3hQ]ELGSGSGC(X2)-NH2 [α/β-SARS2 HRC QE-8]” had an IC50 under setting [2] of approximately 100 nM.
The same measure, in the same setting: to “Ac-[β3hD]IS[β3hQ]INASVVNIEYEI[X1]KLEEVAKKLEESLI[β3hD]L[β3hQ]ELGSGSGC(X2)-NH2 [α/β-SARS2 HRC QE-5]” belongs approximately 1000 nM.
